# Non-standard residues stand in square brackets, D forms with d. Residues, ends and D or L forms follow the SMILES beside them. ξ: configuration not given here. ξP = O=C(O)C1CCCN1
# Assays:
# Mu-type opioid receptor [1] = target: T1, Mu-type opioid receptor (Homo sapiens, UniProt P35372); assay: Inhibition of mu-opioid receptor (unknown origin) by [35S]-GTPgammaS binding assay; assay type: functional
# [2] = target: T2, Kappa-type opioid receptor (Homo sapiens, UniProt P41145); assay: Inhibition of kappa-opioid receptor (unknown origin) by [35S]-GTPgammaS binding assay; assay type: functional
# T2 sequence (P41145 whole entry): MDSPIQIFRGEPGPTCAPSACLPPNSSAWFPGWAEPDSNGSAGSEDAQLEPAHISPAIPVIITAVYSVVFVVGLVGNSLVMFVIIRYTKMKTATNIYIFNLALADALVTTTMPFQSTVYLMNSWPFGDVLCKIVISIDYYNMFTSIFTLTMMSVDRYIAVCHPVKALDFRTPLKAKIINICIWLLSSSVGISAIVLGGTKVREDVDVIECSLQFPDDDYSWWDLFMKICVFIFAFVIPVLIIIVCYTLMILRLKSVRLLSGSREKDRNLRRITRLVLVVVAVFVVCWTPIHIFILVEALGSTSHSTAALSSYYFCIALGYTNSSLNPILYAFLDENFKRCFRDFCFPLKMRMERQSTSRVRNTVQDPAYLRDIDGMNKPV
# Mu-type opioid receptor [3] = target: T1, Mu-type opioid receptor; assay: Inhibition of mu opioid receptor (unknown origin) expressed in HEK293 cells assessed as inhibition of forskolin-stimulated intracellular cAMP accumulation preincubated for 30 mins followed by forskolin-stimulation and measured after 60 mins; assay type: functional, cell-based
# Mu-type opioid receptor [4] = target: T1, Mu-type opioid receptor; assay: Inhibition of mu opioid receptor (unknown origin) expressed in HEK293 cells assessed as inhibition of forskolin-stimulated […] preincubated for 30 mins followed by forskolin-stimulation and measured after 60 mins; assay type: cell-based
# Mu-type opioid receptor [5] = target: T1, Mu-type opioid receptor; assay: Displacement of [3H]DAMGO from mu opioid receptor (unknown origin) expressed in HEK293 cells after 1 hr by liquid scintillation counting; assay type: cell-based
# Mu-type opioid receptor [6] = target: T1, Mu-type opioid receptor; assay: Inhibition of mu opioid receptor (unknown origin) expressed in human […] cells by [35S]-GTPgammaS binding assay; assay type: functional, cell-based
# Mu-type opioid receptor [7] = target: T1, Mu-type opioid receptor; assay: Inhibition of mu opioid receptor (unknown origin) expressed in human […] cells by [35S]-GTPgammaS binding assay relative to control; assay type: functional, cell-based
# [8] = target: T3, Delta-type opioid receptor (Homo sapiens, UniProt P41143); assay: Inhibition of delta opioid receptor (unknown origin) expressed in human […] cells by [35S]-GTPgammaS binding assay; assay type: functional, cell-based
# T3 sequence (P41143 whole entry): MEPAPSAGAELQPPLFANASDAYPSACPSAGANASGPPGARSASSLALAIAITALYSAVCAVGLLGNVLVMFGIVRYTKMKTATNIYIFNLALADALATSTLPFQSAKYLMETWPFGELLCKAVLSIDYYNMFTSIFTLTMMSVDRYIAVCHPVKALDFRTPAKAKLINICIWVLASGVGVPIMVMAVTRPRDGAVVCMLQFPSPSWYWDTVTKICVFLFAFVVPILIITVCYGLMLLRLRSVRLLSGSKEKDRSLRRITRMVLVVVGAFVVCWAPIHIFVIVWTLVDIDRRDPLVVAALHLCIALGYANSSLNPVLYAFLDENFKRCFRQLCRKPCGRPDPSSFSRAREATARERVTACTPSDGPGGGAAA
# [9] = target: T3, Delta-type opioid receptor; assay: Inhibition of delta opioid receptor (unknown origin) expressed in human […] cells by [35S]-GTPgammaS binding assay relative to control; assay type: functional, cell-based
# Mu-type opioid receptor [10] = target: T1, Mu-type opioid receptor; assay: Inhibition of mu opioid receptor (unknown origin) expressed in human […] cells assessed as increase in beta arrestin recruitment; assay type: functional, cell-based
# [11] = target: T3, Delta-type opioid receptor; assay: Inhibition of delta opioid receptor (unknown origin) expressed in human […] cells assessed as increase in beta arrestin recruitment; assay type: functional, cell-based
# Mu-type opioid receptor [12] = target: T1, Mu-type opioid receptor; assay: Inhibition of mu opioid receptor (unknown origin) assessed as increase in beta arrestin recruitment relative to control; assay type: functional
# [13] = target: T3, Delta-type opioid receptor; assay: Inhibition of delta opioid receptor (unknown origin) assessed as increase in beta arrestin recruitment relative to control; assay type: functional
# Mu-type opioid receptor [14] = target: T4, Mu-type opioid receptor (Cavia porcellus, UniProt P97266); assay: Inhibition of mu opioid receptor in guinea pig brain membranes; assay type: cell membranes
# T4 sequence (P97266 whole entry): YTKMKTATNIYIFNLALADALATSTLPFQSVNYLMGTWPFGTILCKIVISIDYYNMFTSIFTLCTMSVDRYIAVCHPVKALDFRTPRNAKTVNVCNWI
# [15] = Inhibition of delta opioid receptor in guinea pig brain membranes; assay type: cell membranes, Cavia porcellus
# [16] = target: T5, Kappa-type opioid receptor (Cavia porcellus, UniProt P41144); assay: Inhibition of kappa opioid receptor in guinea pig brain membranes; assay type: cell membranes
# T5 sequence (P41144 whole entry): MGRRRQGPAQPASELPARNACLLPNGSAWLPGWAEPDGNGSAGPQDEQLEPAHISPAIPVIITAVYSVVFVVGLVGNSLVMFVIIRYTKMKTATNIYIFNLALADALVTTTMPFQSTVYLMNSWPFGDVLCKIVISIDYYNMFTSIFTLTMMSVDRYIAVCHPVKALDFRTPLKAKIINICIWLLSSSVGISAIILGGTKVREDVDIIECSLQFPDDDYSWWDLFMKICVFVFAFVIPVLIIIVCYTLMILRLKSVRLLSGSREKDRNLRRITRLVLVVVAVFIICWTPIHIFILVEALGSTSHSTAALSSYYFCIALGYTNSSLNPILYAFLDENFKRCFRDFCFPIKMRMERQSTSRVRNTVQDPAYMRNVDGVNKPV
# Mu-type opioid receptor [17] = target: T4, Mu-type opioid receptor; assay: Agonist activity at mu opioid receptor in guinea pig brain membranes by [35S]-GTPgammaS binding assay; assay type: functional, cell membranes
# [18] = Agonist activity at delta opioid receptor in guinea pig brain membranes by [35S]-GTPgammaS binding assay; assay type: cell membranes, Cavia porcellus
# [19] = target: T5, Kappa-type opioid receptor; assay: Agonist activity at kappa opioid receptor in guinea pig brain membranes by [35S]-GTPgammaS binding assay; assay type: functional, cell membranes
# [20] = target: Mu-type opioid receptor (Cavia porcellus) (UniProt P97266); assay: Agonist activity at mu opioid receptor in guinea pig brain membranes by [35S]-GTPgammaS binding assay relative to control; assay type: functional, cell membranes
# Sequence of Mu-type opioid receptor (Cavia porcellus) (P97266 whole entry): as the sequence (P97266 whole entry) above
# Cavia porcellus = species: Cavia porcellus; assay: Agonist activity at delta opioid receptor in guinea pig brain membranes by [35S]-GTPgammaS binding assay relative to control; assay type: cell membranes
# [21] = target: Kappa-type opioid receptor (Cavia porcellus) (UniProt P41144); assay: Agonist activity at kappa opioid receptor in guinea pig brain membranes by [35S]-GTPgammaS binding assay relative to control; assay type: functional, cell membranes
# Sequence of Kappa-type opioid receptor (Cavia porcellus) (P41144 whole entry): as the sequence (P41144 whole entry) above
# Mus musculus [22] = assay: Antinociceptive activity in icv dosed Kunming mouse; assay type: functional; settings: central
# Mus musculus [23] = assay: Antinociceptive activity in iv dosed Kunming mouse; assay type: functional
# [24] = target: T2, Kappa-type opioid receptor; assay: Inhibition of kappa opioid receptor (unknown origin) expressed in CHO cells by [35S]-GTPgammaS binding assay; assay type: functional, cell-based
# Homo sapiens [25] = species: Homo sapiens; assay: Selectivity ratio of Ki for mu opioid receptor (unknown origin) expressed in CHO cells to Ki for delta opioid receptor (unknown origin) expressed in CHO cells; assay type: cell-based
# [26] = target: T2, Kappa-type opioid receptor; assay: Partial agonist activity at kappa opioid receptor (unknown origin) expressed in CHO cells by [35S]-GTPgammaS binding assay; assay type: functional, cell-based
# [27] = target: T2, Kappa-type opioid receptor; assay: Partial agonist activity at kappa opioid receptor (unknown origin) expressed in CHO cells by [35S]-GTPgammaS binding assay relative to control; assay type: functional, cell-based
# Mu-type opioid receptor [28] = target: T1, Mu-type opioid receptor; assay: Partial agonist activity at mu opioid receptor (unknown origin) expressed in CHO cells by [35S]-GTPgammaS binding assay; assay type: functional, cell-based
# [29] = target: T2, Kappa-type opioid receptor; assay: Agonist activity at kappa opioid receptor (unknown origin) assessed as reduction in beta arrestin recruitment; assay type: functional
# [30] = target: T2, Kappa-type opioid receptor; assay: Agonist activity at kappa opioid receptor (unknown origin) assessed as reduction in beta arrestin recruitment relative to control; assay type: functional
# [31] = target: T3, Delta-type opioid receptor; assay: Inhibition of delta opioid receptor (unknown origin) by radioligand binding assay
# [32] = target: T3, Delta-type opioid receptor; assay: Inhibition of delta opioid receptor (unknown origin) by MVD assay
# Mu-type opioid receptor [33] = target: T1, Mu-type opioid receptor; assay: Inhibition of mu opioid receptor (unknown origin)
# Homo sapiens [34] = species: Homo sapiens; assay: Selectivity ratio of IC50 for mu opioid receptor (unknown origin) to IC50 for delta opioid receptor (unknown origin) by radioligand binding assay
# Homo sapiens [35] = species: Homo sapiens; assay: Selectivity ratio of IC50 for mu opioid receptor (unknown origin) to IC50 for delta opioid receptor (unknown origin) by MVD assay
# [36] = target: T3, Delta-type opioid receptor; assay: Inhibition of full length delta opioid receptor (unknown origin) assessed as inhibition of forskolin-stimulated intracellular cAMP accumulation; assay type: functional, cell-based
# [37] = target: T3, Delta-type opioid receptor; assay: Inhibition of full length delta opioid receptor (unknown origin) assessed as increase in beta arrestin 1 recruitment
# [38] = target: T3, Delta-type opioid receptor; assay: Inhibition of full length delta opioid receptor (unknown origin) assessed as increase in beta arrestin 2 recruitment
# T1 sequence (P35372 whole entry): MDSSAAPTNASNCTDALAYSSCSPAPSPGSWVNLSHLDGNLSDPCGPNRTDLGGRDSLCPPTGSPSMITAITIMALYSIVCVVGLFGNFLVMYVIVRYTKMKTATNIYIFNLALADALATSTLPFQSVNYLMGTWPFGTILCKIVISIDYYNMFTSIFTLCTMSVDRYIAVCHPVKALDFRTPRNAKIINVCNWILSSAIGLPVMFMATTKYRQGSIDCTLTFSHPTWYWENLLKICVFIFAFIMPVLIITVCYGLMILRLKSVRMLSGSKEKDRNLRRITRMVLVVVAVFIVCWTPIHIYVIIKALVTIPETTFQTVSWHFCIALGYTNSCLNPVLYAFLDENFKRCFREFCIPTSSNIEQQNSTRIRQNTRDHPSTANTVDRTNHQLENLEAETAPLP
structure (smiles),measurement,setting,value
CCC1(C)CC(CCNCc2ccccc2O)(c2ccccc2OC)CCO1 (stereo not given),EC50,Mu-type opioid receptor [1],1.1 µM
same,EC50,[2],3.4 µM
CN(C)[C@H](CNC(=O)NCCc1ccsc1)Cc1cccc2ccccc12,EC50,Mu-type opioid receptor [3],0.203 µM
same,EC50,Mu-type opioid receptor [4],0.203 µM
C=C(C(N)=O)C(NC(=O)[C@H](Cc1c[nH]c2ccccc12)NC(=O)[C@@H](C)N(C)C(=O)[C@@H](N)Cc1ccc(O)cc1)c1ccco1 (stereo not given in full),EC50,Mu-type opioid receptor [5],1450 to 39000 pM
C[C@H](Cc1ccsc1)NC(=O)NC[C@H](Cc1ccc2ccccc2c1)N(C)C,EC50,Mu-type opioid receptor [3],0.0524 to 0.0911 µM
same,EC50,Mu-type opioid receptor [4],0.0524 to 0.0911 µM
CCOC(=O)C1(CCc2ccccc2)CCN(Cc2ccc(NC(C)=O)cc2)CC1,EC50,Mu-type opioid receptor [6],0.054 µM
same,Emax,Mu-type opioid receptor [7],168%
same,EC50,[8],0.054 µM
same,Emax,[9],168%
same,EC50,Mu-type opioid receptor [10],8.3 µM
same,EC50,[11],8.3 µM
same,Emax,Mu-type opioid receptor [12],1200%
same,Emax,[13],1200%
C[C@@H](Cc1ccsc1)NC(=O)NC[C@H](Cc1ccc2ccccc2c1)N(C)C,EC50,Mu-type opioid receptor [3],0.0524 to 0.0911 µM
same,EC50,Mu-type opioid receptor [4],0.0524 to 0.0911 µM
C[C@@H](Cc1ccsc1)NC(=O)NC[C@H](Cc1cccc2ccccc12)N(C)C,EC50,Mu-type opioid receptor [3],0.456 µM
same,EC50,Mu-type opioid receptor [4],0.456 µM
C=C(C(N)=O)C(NC(=O)[C@H](Cc1ccccc1)NC(=O)[C@@H](C)N(C)C(=O)C(N)Cc1c(C)cc(O)cc1C)c1ccccc1 (stereo not given in full),EC50,Mu-type opioid receptor [5],1.77 to 5.15 pM
same,Ki,Mu-type opioid receptor [5],0.0109 to 0.0511 nM
CC[C@@H]1CN2CCc3c([nH]c4cccc(OC)c34)[C@@H]2C[C@@H]1/C(=C\OC)C(=O)OC,Ki,Mu-type opioid receptor [14],0.013 µM
same,Ki,[15],0.155 µM
same,Ki,[16],0.123 µM
same,EC50,Mu-type opioid receptor [17],0.23 µM
same,EC50,[18],0.23 µM
same,EC50,[19],0.23 µM
same,Emax,[20],65%
same,Emax,Cavia porcellus,65%
same,Emax,[21],65%
C=C(C(N)=O)C(NC(=O)[C@H](Cc1c[nH]c2ccccc12)NC(=O)[C@@H](C)N(C)C(=O)C(N)Cc1c(C)cc(O)cc1C)c1ccco1 (stereo not given in full),EC50,Mu-type opioid receptor [5],1.77 to 5.15 pM
same,Ki,Mu-type opioid receptor [5],0.0109 to 0.0511 nM
same,ED50,Mus musculus [22],0.0152 µmol/kg
same,ED50,Mus musculus [23],0.000382 µmol/kg
CC[C@@H]1CN2CC[C@@]3(O)C(=Nc4cccc(OC)c43)[C@@H]2C[C@@H]1/C(=C\OC)C(=O)OC,Ki,Mu-type opioid receptor [14],0.0072 µM
same,Ki,[15],0.06 µM
same,Ki,[16],> 1 µM
same,EC50,Mu-type opioid receptor [17],0.053 µM
same,EC50,[18],0.053 µM
same,EC50,[19],0.053 µM
CCC1CC2CC3c4[nH]c5ccc(O)cc5c4CCN(C2)C13 (stereo not given),Ki,[24],0.72 µM
same,Ratio Ki,Homo sapiens [25],2
same,EC50,[26],8.75 µM
same,Emax,[27],72%
same,EC50,Mu-type opioid receptor [28],16 µM
same,EC50,[29],0.11 µM
same,Emax,[30],13%
CC(C)C[C@H](NC(=O)[C@H](CC(=O)O)NC(=O)[C@H](CC(C)C)NC(=O)C1CCCN1C(=O)[C@@H](N)Cc1ccc(O)cc1)C(=O)O (stereo not given in full) (H-Y[ξP]LDL-OH),IC50,[31],2 µM
same,IC50,[32],51 µM
same,IC50,Mu-type opioid receptor [33],1090 µM
same,Ratio IC50,Homo sapiens [34],500
same,Ratio IC50,Homo sapiens [35],500
same,IC50,[36],6.31 µM
same,EC50,[37],79.4 µM
same,EC50,[38],79.4 µM

# — ChEMBL document CHEMBL4406853 (Eur J Med Chem, 2019)
